This note sets out measurements from patent US20160222014A1, “COMPOUNDS FOR REGULATING FAK AND/OR SRC PATHWAYS” (ASANA BIOSCIENCES, LLC, priority 2013, published 2016).

Bounds are passed on as bounds.

For this assay, the target named is T1, Recombinant Src enzyme (Homo sapiens, UniProt P12931).
T1 construct: purchased Millipore 14-326; host or cells: Sf21 insect cells
T1 sequence (P12931 whole entry): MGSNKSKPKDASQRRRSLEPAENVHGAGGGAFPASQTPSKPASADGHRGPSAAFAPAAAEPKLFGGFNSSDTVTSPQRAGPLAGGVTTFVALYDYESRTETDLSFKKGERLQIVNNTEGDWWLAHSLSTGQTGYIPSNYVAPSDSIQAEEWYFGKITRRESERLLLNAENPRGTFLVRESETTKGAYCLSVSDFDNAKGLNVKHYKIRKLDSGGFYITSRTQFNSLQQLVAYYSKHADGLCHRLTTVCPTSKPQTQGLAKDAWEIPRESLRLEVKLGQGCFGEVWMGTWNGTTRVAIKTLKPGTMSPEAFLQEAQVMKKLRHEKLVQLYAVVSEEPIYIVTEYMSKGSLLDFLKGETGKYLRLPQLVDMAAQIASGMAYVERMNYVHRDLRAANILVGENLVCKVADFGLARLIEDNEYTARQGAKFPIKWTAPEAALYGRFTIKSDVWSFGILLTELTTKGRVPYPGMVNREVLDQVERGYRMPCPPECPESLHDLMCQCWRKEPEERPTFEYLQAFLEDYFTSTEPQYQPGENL
As to the kind of experiment: Src HTRF assay. In kind it is biochemical. How it is done:
Enzyme assay buffer, supplements, and compounds were prepared as described in the FAK HTRF assay.
Recombinant Src enzyme expressed in Sf21 insect cells was obtained (Millipore, Cat No. 14-326, Lot # D8CN006U-K). A 35 μM stock was used at a final concentration of 5 nM in the assay.
Tyk2 synthetic peptide-Biotinylated-N-terminal tag-[…]
A custom made substrate, a Tyk2 synthetic peptide, biotinylated with an N-terminal tag was obtained (Biopeptide and Sigma, Cat. No. 14918001 VC80021). A 100 μM stock was used at a final concentration of 0.5 μM in the assay.
A 10 mM stock in 100 μL enzyme assay buffer pH7.4 was prepared freshly and used at a final concentration of 10 μM in the assay.
Dasatinib (Bristol-Myers Squibb)
The assay procedure was the same as discussed above.
Background: In TR-FRET formats the signal depends on donor and acceptor labels being close together.
By IC50 is commonly meant the concentration needed to halve the response being measured. As to `CN(c1cccc(Cn2ccc3cnc(Nc4ccc5c(c4)CCC(=O)N5)nc32)n1)S(C)(=O)=O` [Example 141], the IC50 was more than 1000 nM. As for `COc1ccccc1S(=O)(=O)n1ccc2cnc(Nc3cccnc3)nc21` [Example 143], the figure is more than 1000 nM. The value for `COc1ccccc1S(=O)(=O)n1ccc2cnc(Nc3ccncc3)nc21` [Example 144] was more than 1000 nM; that for `Cc1ccccc1Nc1ncc2ccn(Cc3cccnc3N(C)S(C)(=O)=O)c2n1` [Example 148] was more than 1000 nM; that for `CN(c1ncccc1Cn1ccc2cnc(Nc3ccccc3F)nc21)S(C)(=O)=O` [Example 155] was more than 1000 nM.

As to `CN(c1ncccc1Cn1ccc2cnc(Nc3c(F)cccc3F)nc21)S(C)(=O)=O` [Example 167], the IC50 was more than 1000 nM.

For the molecule `CN(c1ncccc1Cn1ccc2cnc(Nc3cccc(-c4nnn[nH]4)c3)nc21)S(C)(=O)=O` [Example 188], the IC50 is more than 1000 nM. The value for `CC(=O)Nc1ccc(S(=O)(=O)n2ccc3cnc(Nc4ccc5c(c4)CCC(=O)N5)nc32)cc1` [Example 192] was more than 1000 nM; that for `O=C1CCc2cc(Nc3ncc4ccn(S(=O)(=O)c5ccc6ncsc6c5)c4n3)ccc2N1` [Example 226] was more than 1000 nM. The value for `O=S(=O)(c1ccc2ncsc2c1)n1ccc2cnc(Nc3ccc(N4CCNCC4)cc3)nc21` [Example 234] was more than 1000 nM; that for `CN(c1ncccc1Cn1ncc2cnc(Nc3ccc(N4CCNCC4)cc3)nc21)S(C)(=O)=O` [Example 241] was less than 20 nM. The value for `O=C1Cc2cc(Nc3cc4c(cn3)cnn4S(=O)(=O)c3cccc4cccnc34)ccc2N1` [Example 354] was more than 1000 nM; that for `O=S(=O)(c1cccc2cccnc12)n1ccc2cnc(Nc3ccc(N4CCNCC4)cc3CO)cc21` [Example 361] was more than 1000 nM; that for `O=S(=O)(c1cccc2cccnc12)n1ccc2cnc(Nc3ccc(N4CCNCC4)cc3CO)nc21` [Example 363] was more than 1000 nM.

On to `COc1cc(Nc2cc3c(ccn3Cc3cccnc3N(C)S(C)(=O)=O)cn2)ccc1N1CCNCC1` [Example 364], for which the 50% inhibitory concentration (IC50) was more than 1000 nM.

For `COc1c(Nc2ncc3ccn(S(=O)(=O)c4cccc5cccnc45)c3n2)ccc(N2CCNCC2)c1F` [Example 370], the IC50 is more than 1000 nM. The value for `O=C(Nc1ccc(Nc2cc3c(cn2)cnn3S(=O)(=O)c2cccc3cccnc23)cc1)C1CC1` [Example 375] was more than 1000 nM; that for `COc1cc(N2CCNCC2)ccc1Nc1cc2c(ccn2S(=O)(=O)c2cccc3ccc(C)nc23)cn1` [Example 382] was more than 1000 nM. `CN(c1ncccc1Cn1ccc2cnc(Nc3ccc(N4CCC(O)CC4)cc3)cc21)S(C)(=O)=O` [Example 384]: the IC50 was more than 1000 nM. The value for `CN(c1ncccc1Cn1ccc2cnc(Nc3ccc(N4CCN(CCO)CC4)cc3)cc21)S(C)(=O)=O` [Example 393] was more than 1000 nM. The value for `Cc1ccnc2c(S(=O)(=O)n3ccc4cnc(Nc5ccc(N6CCC(O)CC6)cc5)nc43)cccc12` [Example 402] was more than 1000 nM; that for `CN(c1ncccc1CN1CCc2cnc(Nc3ccc(N4CCNCC4)cc3)nc21)S(C)(=O)=O` [Example 433] was more than 1000 nM.

Regarding `C[C@H]1CNCCN1c1ccc(Nc2cc3c(ccn3S(=O)(=O)c3ccccc3C#N)cn2)cc1` [Example 477], the IC50 was more than 1000 nM. The value for `COc1cc(C(=O)N2CCOCC2)ccc1Nc1ncc2ccn(Cc3ccccc3N(C)S(C)(=O)=O)c2n1` [Example 503] was more than 1000 nM; that for `CC1(C)CN(S(=O)(=O)c2cccc3cccnc23)c2nc(Nc3ccc4c(c3)CC(=O)N4)ncc21` [Example 511] was more than 1000 nM. As to `C[C@H]1CN(c2ccc(Nc3ncc4ccn(Cc5ccccc5N(C)S(C)(=O)=O)c4n3)nc2)CCN1` [Example 565], the IC50 was more than 1000 nM. The value for `CN(C)C1CN(c2ccc(Nc3ncc4c(n3)N(S(=O)(=O)c3cccc5cccnc35)CC4(C)C)cc2)C1` [Example 603] was more than 1000 nM; that for `C[C@H]1CN(c2ccc(Nc3cc4c(ccn4Cc4cccnc4N(C)S(C)(=O)=O)cn3)cc2)CCN1` [Example 616] was more than 1000 nM.
